# In article PMC4979471 (Cell Death Discovery, 2015):
# Where two headings read alike, the source gives them in different places.
# What was measured:
# Assay in all cases: Kinase selectivity, P33-radiolabeled assay
# Assay type in all cases: biochemical
# Conditions in all cases: 10 μM ATP
# NEK3 = molecular target: T1, NEK3 (Homo sapiens, UniProt P51956)
# T1 construct: purchased Reaction Biology Corp
# T1 sequence (P51956 1-506): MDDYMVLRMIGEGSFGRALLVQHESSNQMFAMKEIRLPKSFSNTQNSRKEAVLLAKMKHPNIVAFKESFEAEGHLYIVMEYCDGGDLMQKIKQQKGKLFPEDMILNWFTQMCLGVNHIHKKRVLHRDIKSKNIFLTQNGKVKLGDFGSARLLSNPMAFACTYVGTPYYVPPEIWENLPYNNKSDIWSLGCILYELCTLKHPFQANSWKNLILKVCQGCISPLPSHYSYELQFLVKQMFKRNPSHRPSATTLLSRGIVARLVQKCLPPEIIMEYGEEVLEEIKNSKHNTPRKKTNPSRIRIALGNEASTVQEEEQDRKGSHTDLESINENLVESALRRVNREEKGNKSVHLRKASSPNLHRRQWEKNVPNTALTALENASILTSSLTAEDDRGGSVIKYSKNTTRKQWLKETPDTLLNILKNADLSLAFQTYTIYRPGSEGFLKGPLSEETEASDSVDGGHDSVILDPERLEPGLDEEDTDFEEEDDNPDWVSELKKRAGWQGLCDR
# Experimental: (§1) The compound was tested at a single dose in duplicate at 10 μM. Reactions were carried out at 10 μM ATP. Data are reported as % enzyme activity (relative to DMSO controls). The full data set is shown in the Supplementary Table I.
# PKD2/PRKD2 = molecular target: T2, PKD2/PRKD2 (Homo sapiens, UniProt Q9BZL6)
# T2 construct: purchased Reaction Biology Corp
# T2 sequence (Q9BZL6 1-878): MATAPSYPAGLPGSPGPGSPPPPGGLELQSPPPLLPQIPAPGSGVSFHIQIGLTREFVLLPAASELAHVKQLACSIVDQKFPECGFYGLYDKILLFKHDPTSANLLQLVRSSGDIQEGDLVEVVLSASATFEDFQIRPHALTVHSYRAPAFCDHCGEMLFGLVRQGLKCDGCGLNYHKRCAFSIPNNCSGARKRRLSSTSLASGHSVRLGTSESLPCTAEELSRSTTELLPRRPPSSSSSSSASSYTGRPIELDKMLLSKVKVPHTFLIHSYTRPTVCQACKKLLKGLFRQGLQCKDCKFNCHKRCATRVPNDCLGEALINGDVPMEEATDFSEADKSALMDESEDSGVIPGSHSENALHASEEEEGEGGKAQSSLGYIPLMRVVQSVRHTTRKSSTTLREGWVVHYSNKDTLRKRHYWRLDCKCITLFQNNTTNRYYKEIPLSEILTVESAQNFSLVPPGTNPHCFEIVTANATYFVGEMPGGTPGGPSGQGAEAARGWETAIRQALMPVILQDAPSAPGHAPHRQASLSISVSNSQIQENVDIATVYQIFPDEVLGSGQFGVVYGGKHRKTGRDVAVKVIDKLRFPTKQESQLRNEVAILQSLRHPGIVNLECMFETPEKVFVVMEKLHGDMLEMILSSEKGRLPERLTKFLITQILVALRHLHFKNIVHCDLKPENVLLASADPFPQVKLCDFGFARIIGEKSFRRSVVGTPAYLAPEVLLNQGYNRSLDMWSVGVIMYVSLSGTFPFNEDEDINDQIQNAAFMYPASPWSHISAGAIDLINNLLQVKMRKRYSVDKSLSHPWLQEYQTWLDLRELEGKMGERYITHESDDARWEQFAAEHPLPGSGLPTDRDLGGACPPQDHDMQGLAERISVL
# Experimental: as §1
# LATS2 = molecular target: T3, LATS2 (Homo sapiens, UniProt Q9NRM7)
# T3 construct: purchased Reaction Biology Corp
# T3 sequence (Q9NRM7 1-1088): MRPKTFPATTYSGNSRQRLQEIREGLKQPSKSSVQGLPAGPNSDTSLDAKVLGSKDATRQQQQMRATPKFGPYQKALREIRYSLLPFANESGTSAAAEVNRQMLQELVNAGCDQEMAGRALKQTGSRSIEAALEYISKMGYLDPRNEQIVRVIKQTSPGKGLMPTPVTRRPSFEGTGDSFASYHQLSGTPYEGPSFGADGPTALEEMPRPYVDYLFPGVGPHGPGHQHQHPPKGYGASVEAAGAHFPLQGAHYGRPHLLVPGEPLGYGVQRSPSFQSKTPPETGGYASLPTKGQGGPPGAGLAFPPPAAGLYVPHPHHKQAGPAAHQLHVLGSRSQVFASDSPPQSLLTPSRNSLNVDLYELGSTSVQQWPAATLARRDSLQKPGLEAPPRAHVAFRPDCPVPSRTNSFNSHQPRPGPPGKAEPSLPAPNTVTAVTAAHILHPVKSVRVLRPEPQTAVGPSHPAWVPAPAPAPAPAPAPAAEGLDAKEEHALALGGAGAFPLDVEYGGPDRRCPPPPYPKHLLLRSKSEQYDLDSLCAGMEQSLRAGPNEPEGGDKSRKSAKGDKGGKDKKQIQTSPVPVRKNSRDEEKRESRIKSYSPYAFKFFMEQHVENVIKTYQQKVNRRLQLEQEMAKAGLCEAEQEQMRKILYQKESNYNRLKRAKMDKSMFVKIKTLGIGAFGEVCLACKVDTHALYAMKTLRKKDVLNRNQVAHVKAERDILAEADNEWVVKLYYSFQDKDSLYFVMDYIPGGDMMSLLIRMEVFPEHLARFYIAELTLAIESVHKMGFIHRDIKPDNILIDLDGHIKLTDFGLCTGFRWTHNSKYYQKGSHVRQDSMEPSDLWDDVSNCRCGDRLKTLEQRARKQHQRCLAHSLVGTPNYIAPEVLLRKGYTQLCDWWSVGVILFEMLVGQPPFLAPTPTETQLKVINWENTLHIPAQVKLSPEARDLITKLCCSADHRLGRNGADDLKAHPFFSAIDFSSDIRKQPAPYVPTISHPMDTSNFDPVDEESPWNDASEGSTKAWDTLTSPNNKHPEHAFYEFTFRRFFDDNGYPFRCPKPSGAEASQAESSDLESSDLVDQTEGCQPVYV
# Experimental: as §1
# [1] = read-out: % Enzyme Activity (relative to DMSO controls) AVG
# [2] = read-out: % Enzyme Activity (relative to DMSO controls) Data 1
# [3] = read-out: % Enzyme Activity (relative to DMSO controls) Data 2
smiles,measurement,setting,value
CC(C)(C)C(=O)N1N=CC[C@H]1c1ccccc1 [GSK′963],remaining activity at 10 µM,NEK3; [1],93.5%
same,remaining activity at 10 µM,NEK3; [2],93.2%
same,remaining activity at 10 µM,NEK3; [3],93.8%
same,remaining activity at 10 µM,PKD2/PRKD2; [1],102%
same,remaining activity at 10 µM,PKD2/PRKD2; [2],101%
same,remaining activity at 10 µM,PKD2/PRKD2; [3],104%
same,remaining activity at 10 µM,LATS2; [1],117%
same,remaining activity at 10 µM,LATS2; [2],112%
same,remaining activity at 10 µM,LATS2; [3],121%
